# Target: T1, GPR6 receptor expressed in CHO-K1 cells (Homo sapiens, UniProt P46095)
# T1 construct: expressed in transfected cells
# Experiment: In vitro inhibition of cAMP (EC50), cell-based HTRF cAMP assay
# Settings: inhibition of constitutive cAMP activity of GPR6 in CHO-K1 cells
# Method in brief: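 Cellular cAMP measured by Lance Ultra HTRF (Eu-cAMP tracer, ULight anti-cAMP), with EC50 fitted by four-parameter logistic. Test compounds sat on cells 45 min, 37 °C, in pH 7.4 Ringer's with 300 μM IBMX and 0.5% BSA; GPR6 in CHO-K1 induced beforehand by doxycycline, 2 μg/mL, 20 h.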
# T1 sequence (P46095 whole entry): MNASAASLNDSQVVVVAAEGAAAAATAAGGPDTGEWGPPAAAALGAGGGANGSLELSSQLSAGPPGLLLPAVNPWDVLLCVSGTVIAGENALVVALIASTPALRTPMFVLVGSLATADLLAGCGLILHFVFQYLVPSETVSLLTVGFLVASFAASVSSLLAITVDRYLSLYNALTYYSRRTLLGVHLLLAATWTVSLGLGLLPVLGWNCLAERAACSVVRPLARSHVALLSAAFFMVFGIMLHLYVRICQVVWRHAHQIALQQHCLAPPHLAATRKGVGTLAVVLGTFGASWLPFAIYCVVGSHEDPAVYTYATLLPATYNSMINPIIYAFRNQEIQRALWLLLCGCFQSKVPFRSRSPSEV
row,SMILES,"pEC50, in vitro inhibition of cAMP"
1,"COc1nn(C)cc1C(=O)Nc1cc(C#N)cnc1N1CCN(Cc2ccc(C#N)cc2)CC1 [Example 153, N-(5-cyano-2-(4-(4-cyanobenzyl)piperazin-1-yl)pyridin-3-yl)-3-methoxy-1-methyl-1H-pyrazole-4-carboxamide]",6.4
2,"COc1nn(C)cc1C(=O)Nc1cc(C#N)cnc1N1CCN(Cc2ccc(OC(F)F)cc2)CC1 [Example 162, N-(5-cyano-2-(4-(4-(difluoromethoxy)benzyl)piperazin-1-yl)pyridin-3-yl)-3-methoxy-1-methyl-1H-pyrazole-4-carboxamide]",6.6
3,"COc1nn(C)cc1C(=O)Nc1cc(C#N)cnc1N1CCN(Cc2ccccc2OC(F)F)CC1 [Example 163, N-(5-cyano-2-(4-(2-(difluoromethoxy)benzyl)piperazin-1-yl)pyridin-3-yl)-3-methoxy-1-methyl-1H-pyrazole-4-carboxamide]",6.7
4,"COc1nn(C)cc1C(=O)Nc1cc(C#N)cnc1N1CCN(Cc2ccc(OC(F)(F)F)cc2)CC1 [Example 166, N-(5-cyano-2-(4-(4-(trifluoromethoxy)benzyl)piperazin-1-yl)pyridin-3-yl)-3-methoxy-1-methyl-1H-pyrazole-4-carboxamide]",6.1
5,"COc1nn(C)cc1C(=O)Nc1cc(C#N)cnc1N1CCN(Cc2ccccc2OC(F)(F)F)CC1 [Example 167, N-(5-cyano-2-(4-(2-(trifluoromethoxy)benzyl)piperazin-1-yl)pyridin-3-yl)-3-methoxy-1-methyl-1H-pyrazole-4-carboxamide]",6.5
6,"COc1nn(C)cc1C(=O)Nc1cc(C#N)cnc1N1CCN(Cc2c(F)cc(F)c(OC)c2F)CC1 [Example 171, N-(5-cyano-2-(4-(2,4,6-trifluoro-3-methoxybenzyl)piperazin-1-yl)pyridin-3-yl)-3-methoxy-1-methyl-1H-pyrazole-4-carboxamide]",6.6
7,"COc1nn(C)cc1C(=O)Nc1cc(C#N)cnc1N1CCN(Cc2c(F)cc(F)cc2F)CC1 [Example 173, N-(5-cyano-2-(4-(2,4,6-trifluorobenzyl)piperazin-1-yl)pyridin-3-yl)-3-methoxy-1-methyl-1H-pyrazole-4-carboxamide]",6.8
8,"COc1nn(C)cc1C(=O)Nc1cc(C#N)cnc1N1CCN(Cc2c(F)cc(Cl)cc2F)CC1 [Example 174, N-(2-(4-(4-chloro-2,6-difluorobenzyl)piperazin-1-yl)-5-cyanopyridin-3-yl)-3-methoxy-1-methyl-1H-pyrazole-4-carboxamide]",7.1
9,"COc1cccc(C(=O)Nc2cc(C#N)ccc2N2CCC(Oc3ccc(F)cc3F)CC2)n1 [Example 175, N-(5-cyano-2-(4-(2,4-difluorophenoxy)piperidin-1-yl)phenyl)-6-methoxypicolinamide]",7.0
10,"Cc1cc(C)n(C)c(=O)c1C(=O)Nc1cc(C#N)ccc1N1CCC(Oc2ccc(F)cc2F)CC1 [Example 176, N-(5-cyano-2-(4-(2,4-difluorophenoxy)piperidin-1-yl)phenyl)-1,4,6-trimethyl-2-oxo-1,2-dihydropyridine-3-carboxamide]",6.5
11,"N#Cc1ccc(N2CCC(Oc3ccc(F)cc3F)CC2)c(NC(=O)c2cnc3ccccn3c2=O)c1 [Example 178, N-(5-cyano-2-(4-(2,4-difluorophenoxy)piperidin-1-yl)phenyl)-4-oxo-4H-pyrido[1,2-a]pyrimidine-3-carboxamide]",6.8
12,"CCCCn1cccc(C(=O)Nc2cc(C#N)ccc2N2CCC(Oc3ccc(F)cc3F)CC2)c1=O [Example 179, 1-butyl-N-(5-cyano-2-(4-(2,4-difluorophenoxy)piperidin-1-yl)phenyl)-2-oxo-1,2-dihydropyridine-3-carboxamide]",6.2
13,"N#Cc1ccc(N2CCC(Oc3ccc(F)cc3F)CC2)c(NC(=O)c2cccn(C3CCCCC3)c2=O)c1 [Example 180, N-(5-cyano-2-(4-(2,4-difluorophenoxy)piperidin-1-yl)phenyl)-1-cyclohexyl-2-oxo-1,2-dihydropyridine-3-carboxamide]",5.8
14,"CC(C)n1cccc(C(=O)Nc2cc(C#N)ccc2N2CCC(Oc3ccc(F)cc3F)CC2)c1=O [Example 181, N-(5-cyano-2-(4-(2,4-difluorophenoxy)piperidin-1-yl)phenyl)-1-isopropyl-2-oxo-1,2-dihydropyridine-3-carboxamide]",6.4
15,"CC(C)n1cc(Br)cc(C(=O)Nc2cc(C#N)ccc2N2CCC(Oc3ccc(F)cc3F)CC2)c1=O [Example 182, 5-bromo-N-(5-cyano-2-(4-(2,4-difluorophenoxy)piperidin-1-yl)phenyl)-1-isopropyl-2-oxo-1,2-dihydropyridine-3-carboxamide]",6.3

# More lines, now with the values ahead:
row,"pEC50, in vitro inhibition of cAMP",SMILES
1,6.3,"COc1nn(C)cc1C(=O)Nc1cc(C#N)cnc1N1CCN(Cc2cc(C#N)ccc2F)CC1 [Example 151, N-(5-cyano-2-(4-(5-cyano-2-fluorobenzyl)piperazin-1-yl)pyridin-3-yl)-3-methoxy-1-methyl-1H-pyrazole-4-carboxamide]"
2,7.1,"COc1ccc(CN2CCN(c3ncc(C#N)cc3NC(=O)c3cn(C)nc3OC)CC2)c(F)c1 [Example 152, N-(5-cyano-2-(4-(2-fluoro-4-methoxybenzyl)piperazin-1-yl)pyridin-3-yl)-3-methoxy-1-methyl-1H-pyrazole-4-carboxamide]"
3,6.5,"COc1nn(C)cc1C(=O)Nc1cc(C#N)cnc1N1CCN(Cc2ccc(F)c(C#N)c2)CC1 [Example 154, N-(5-cyano-2-(4-(3-cyano-4-fluorobenzyl)piperazin-1-yl)pyridin-3-yl)-3-methoxy-1-methyl-1H-pyrazole-4-carbonamide]"
4,6.3,"COc1cc(F)ccc1CN1CCN(c2ncc(C#N)cc2NC(=O)c2cn(C)nc2OC)CC1 [Example 155, N-(5-cyano-2-(4-(4-fluoro-2-methoxybenzyl)piperazin-1-yl)pyridin-3-yl)-3-methoxy-1-methyl-1H-pyrazole-4-carboxamide]"
5,6.4,"COc1cccc(CN2CCN(c3ncc(C#N)cc3NC(=O)c3cn(C)nc3OC)CC2)c1 [Example 156, N-(5-cyano-2-(4-(3-methoxybenzyl)piperazin-1-yl)pyridin-3-yl)-3-methoxy-1-methyl-1H-pyrazole-4-carboxamide]"
6,6.7,"COc1ccc(CN2CCN(c3ncc(C#N)cc3NC(=O)c3cn(C)nc3OC)CC2)cc1 [Example 157, N-(5-cyano-2-(4-(4-methoxybenzyl)piperazin-1-yl)pyridin-3-yl)-3-methoxy-1-methyl-1H-pyrazole-4-carboxamide]"
7,6.3,"COc1cc(CN2CCN(c3ncc(C#N)cc3NC(=O)c3cn(C)nc3OC)CC2)ccc1F [Example 158, N-(5-cyano-2-(4-(4-fluoro-3-methoxybenzyl)piperazin-1-yl)pyridin-3-yl)-3-methoxy-1-methyl-1H-pyrazole-4-carboxamide]"
8,6.0,"COc1cc(F)cc(CN2CCN(c3ncc(C#N)cc3NC(=O)c3cn(C)nc3OC)CC2)c1 [Example 159, N-(5-cyano-2-(4-(3-fluoro-5-methoxybenzyl)piperazin-1-yl)pyridin-3-yl)-3-methoxy-1-methyl-1H-pyrazole-4-carboxamide]"
9,6.5,"COc1nn(C)cc1C(=O)Nc1cc(C#N)cnc1N1CCN(Cc2cccc(F)c2OC)CC1 [Example 160, N-(5-cyano-2-(4-(3-fluoro-2-methoxybenzyl)piperazin-1-yl)pyridin-3-yl)-3-methoxy-1-methyl-1H-pyrazole-4-carboxamide]"
10,6.5,"COc1ccc(F)cc1CN1CCN(c2ncc(C#N)cc2NC(=O)c2cn(C)nc2OC)CC1 [Example 161, N-(5-cyano-2-(4-(5-fluoro-2-methoxybenzyl)piperazin-1-yl)pyridin-3-yl)-3-methoxy-1-methyl-1H-pyrazole-4-carboxamide]"
11,6.5,"COc1nn(C)cc1C(=O)Nc1cc(C#N)cnc1N1CCN(Cc2cccc(OC(F)F)c2)CC1 [Example 164, N-(5-cyano-2-(4-(3-(difluoromethoxy)benzyl)piperazin-1-yl)pyridin-3-yl)-3-methoxy-1-methyl-1H-pyrazole-4-carboxamide]"
12,6.7,"COc1nn(C)cc1C(=O)Nc1cc(C#N)cnc1N1CCN(Cc2cccc(OC(F)(F)F)c2)CC1 [Example 165, N-(5-cyano-2-(4-(3-(trifluoromethoxy)benzyl)piperazin-1-yl)pyridin-3-yl)-3-methoxy-1-methyl-1H-pyrazole-4-carboxamide]"
13,6.4,"COc1ccc(CN2CCN(c3ncc(C#N)cc3NC(=O)c3cn(C)nc3OC)CC2)cc1F [Example 168, N-(5-cyano-2-(4-(3-fluoro-4-methoxybenzyl)piperazin-1-yl)pyridin-3-yl)-3-methoxy-1-methyl-1H-pyrazole-4-carboxamide]"
14,6.4,"COc1nn(C)cc1C(=O)Nc1cc(C#N)cnc1N1CCN(Cc2cc(F)cc(F)c2)CC1 [Example 169, N-(5-cyano-2-(4-(3,5-difluorobenzyl)piperazin-1-yl)pyridin-3-yl)-3-methoxy-1-methyl-1H-pyrazole-4-carboxamide]"
15,6.5,"COc1cc(F)c(F)cc1CN1CCN(c2ncc(C#N)cc2NC(=O)c2cn(C)nc2OC)CC1 [Example 170, N-(5-cyano-2-(4-(4,5-difluoro-2-methoxybenzyl)piperazin-1-yl)pyridin-3-yl)-3-methoxy-1-methyl-1H-pyrazole-4-carboxamide]"
16,7.1,"COc1nn(C)cc1C(=O)Nc1cc(C#N)cnc1N1CCN(Cc2ccc(Cl)cc2F)CC1 [Example 172, N-(2-(4-(4-chloro-2-fluorobenzyl)piperazin-1-yl)-5-cyanopyridin-3-yl)-3-methoxy-1-methyl-1H-pyrazole-4-carboxamide]"
